From US20260199294A1, “PEPTIDE DRUG CONJUGATES” (Oncopeptides Innovation AB, priority 2022, published 2026)

Legend:
[1] = tested on: mitochondrial DNA (mtDNA) prepared from MM.1S cells; experiment: Direct DNA damage, PCR amplification with mtDNA primers; format: biochemical, human; settings: 0.25 μM compound, 30 minutes at 37° C.
Procedure: (§1) Method: DNA was prepared from MM.1S cells by QIAGEN genomic tip 20/G according to protocol described in Furda et al., Methods Mol Biol, 2012. 1 μg of DNA was treated with 0.25 μM compound for 30 minutes at 37° C. DMSO was used as control treatment. 20 ng of the treated DNA was PCR amplified using Phusion Hot Start II High Fidelity PCR Master Mix (Thermo Scientific) and primers directed to either HPRT or primers directed to mitochondrial DNA (mtDNA) was used, generating 10.4 or 8.9 kb fragments, respectively. The PCR reactions were separated on a 1% agarose gel and visualized by ChemiDoc™ MP Imaging System (BioRad). Example compounds 1, 2 and 38 were investigated, as were compounds 18 and 20, which are metabolites of compound 1. They were compared with bendamustine, melphalan and DMSO control. The results for compounds 1, 2, 18 and 20 with the HPRT primers are shown in FIG. 4(A); the results with the mtDNA primers are shown in FIG. 4(B).

[2] = tested on: hPBMC (Human Peripheral blood mononuclear cells); experiment: In vitro cytotoxicity (CellTiter-Glo, 72 h) in hPBMC; format: cell-based; settings: stimulated with PHA-M and IL-2
Procedure: (§2) All cells were cultivated in RPMI medium 1640 (IX). All media was supplemented with […] penicillin/streptomycin, 10% heat inactivated FBS, 0.1 mM Sodium Pyruvate, 1×MEM NEAA (ThermoFisher) and 1 mM HEPES. The DERL-2 cells had higher FBS (20%) and 40 ng/mL IL-2 was added. hPBMCs were thawed and allowed to acclimatise overnight and then stimulated with 10 µg/mL PHA-M and 40 ng/mL IL-2 for 4 hours before being exposed to test compounds. All cells, except for hPBMCs, were grown to reach log phase before being exposed to the test compounds.
(§3) Test compounds were dissolved in 100% DMSO and added to a 384 assay plate. Additional DMSO was added to maintain the same final DMSO concentration (0.2%) in all wells. 25 μL cell suspension with a concentration of 100000 cells/mL was added to each well. The cells were cultured in a CO2 incubator at 37° C. for 72 h. Plates were equilibrated to room temperature for 30 minutes before adding 20 μL CellTiter-Glo® 2.0 (Promega) reagent to all wells. The plate was then allowed to stabilize for 20 minutes before recording the luminescence (Em filter 700 nm) in an Envision plate reader.

[3] = tested on: nuclear DNA (HPRT) prepared from MM.1S cells; experiment: Direct DNA damage, PCR amplification with HPRT primers; format: biochemical, human; settings: 0.25 μM compound, 30 minutes at 37° C.
Procedure: as §1

[4] = tested on: BJ Fibroblasts (normal cells); experiment: In vitro cytotoxicity (CellTiter-Glo, 72 h) in BJ fibroblasts; format: cell-based, human
Procedure: as §2, §3

MM.1S cells [5] = experiment: Cellular retention/efflux: intracellular and extracellular concentrations by LC-MS/MS; format: in vitro ADME, human; settings: MM.1S cells, 5, 15 and 60 min; metabolites measured after treatment with the parent Example compound
Procedure: Methods: MM.1S cells at 2×10^6 cells/mL were seeded at 250 μL per well in a 96-well plate. Cells were incubated in the presence of a test compound for 5, 15, and 60 min before pelleting cells by centrifugation at +4° C. for 5 min. Cell media was immediately harvested to a second plate and stored at −80° C. until further analysis. Pelleted cells were washed once with ice cold PBS before storage at −80° C. until further analysis.
Cells were lysed and protein in the media were precipitated using acetonitrile dimethylformamide, 9:1 containing internal standard. Samples were centrifuged and the supernatant was analyzed with LC-MS/MS (ACQUITY UPLC-Xevo TQ-S micro) to determine compound concentration.
Example compound 1, bendamustine and melphalan were used as test compounds.
Method: Method described in Biological example 3.
Example compounds 1, 2, 3, 4, 6, 7 and 10 were investigated. Intracellular metabolites are formed from all compounds tested. The compound used for cell treatment was metabolised to the ester-hydrolysed compound (here called Metabolite A) and to the amide-hydrolysed compound (called Metabolite B). The example compound structures and the structures of the two metabolites for the respective compounds were as shown in Table 4. The Metabolites B formed under the conditions tested were compounds with structure as Examples 17 and 18: […]

MM.1S cells [6] = experiment: DNA fragmentation, APO-BrdU TUNEL assay by FACS; format: cell-based, human
Procedure: Method: 1×10^6 MM.1S cells (CRL-2974, ATCC) were treated with Example compound 1 or Bendamustine at 0.006, 0.06, 0.6 or 6 μM for 24 h. After incubation, the cells were washed with PBS (10010-015, Gibco), fixed in Flow Cytometry Fixation Buffer (FC004, R&D Systems) for 10 min and stored in 70% ethanol at −20° C. overnight. The deoxythymidine analog (BrdUTP) was present in the experiment and served to label the DNA break sites. Next day, the cells were washed and stained using an APO-BrdU™ TUNEL Assay Kit, according to the manufacturer's protocol (A23210, Invitrogen), followed by the analysis using BD FACSCanto™ II. The percentage ofTUNEL positive cells indicates the percentage of cells with fragmented DNA.

Structure (SMILES): CCOC(=O)[C@H](Cc1ccc(F)cc1)NC(=O)[C@@H](N)CCc1nc2cc(N(CCCl)CCCl)ccc2n1C [Example compound 2, Ethyl (2S)-2-[[(2S)-2-amino-4-[5-[bis(2-chloroethyl)amino]-1-methyl-benzimidazol-2-yl]butanoyl]amino]-3-(4-fluorophenyl)propanoate]
- DNA damage on mitochondrial DNA (8.9 kb PCR band) [1]: strong DNA damaging effect
- IC50 [2]: 7.5 nM
- DNA damage on nuclear DNA (HPRT 10.4 kb PCR band) [3]: strong DNA damaging effect

Structure (SMILES): CCOC(=O)[C@H](Cc1nc2cc(N(CCCl)CCCl)ccc2n1C)NC(=O)[C@@H](N)CC(C)C [Example compound 10, Ethyl (2S)-2-[[(2S)-2-amino-4-methyl-pentanoyl]amino]-3-[5-[bis(2-chloroethyl)amino]-1-methyl-benzimidazol-2-yl]propanoate]
- IC50 [2]: 26.4 nM

Structure (SMILES): CCOC(=O)[C@H](CC(C)C)NC(=O)[C@@H](N)CCc1nc2cc(N(CCCl)CCCl)ccc2n1-c1ccccc1 [Example compound 13, Ethyl (2S)-2-[[(2S)-2-amino-4-[5-[bis(2-chloroethyl)amino]-1-phenyl-benzimidazol-2-yl]butanoyl]amino]-4-methyl-pentanoate]
- IC50 [4]: > 2000 nM

Structure (SMILES): CCOC(=O)[C@H](Cc1ccc(F)cc1)NC(=O)[C@H](CCc1nc2cc(N(CCCl)CCCl)ccc2n1C)NC(C)=O [Example compound 34, Ethyl (2S)-2-[[(2S)-2-acetamido-4-[5-[bis(2-chloroethyl)amino]-1-methyl-benzimidazol-2-yl]butanoyl]amino]-3-(4-fluorophenyl)propanoate]
- IC50 [4]: > 2000 nM

Structure (SMILES): N[C@@H](Cc1ccc(N(CCCl)CCCl)cc1)C(=O)O [Melphalan, reference compound]
- DNA damage on mitochondrial DNA (8.9 kb PCR band) [1]: no or very minor effect on DNA damage
- extracellular concentration (media) (MM.1S cells [5]): high and constant throughout the experiment
- intracellular concentration (MM.1S cells [5]): low intracellular concentration
- DNA damage on nuclear DNA (HPRT 10.4 kb PCR band) [3]: no or very minor effect on DNA damage

Structure (SMILES): CC(C)C[C@H](NC(=O)[C@@H](N)CCc1nc2cc(N(CCCl)CCCl)ccc2n1C)C(=O)N(C)C [Example compound 30, (2S)-2-[[(2S)-2-Amino-4-[5-[bis(2-chloroethyl)amino]-1-methyl-benzimidazol-2-yl]butanoyl]amino]-N,N,4-trimethyl-pentanamide]
- IC50 [4]: > 2000 nM

Structure (SMILES): Cl.Cl.Cn1c(CC[C@H](N)C(=O)O)nc2cc(N(CCCl)CCCl)ccc21 [Example compound 18, (S)-2-amino-4-(5-(bis(2-chloroethyl)amino)-1-methyl-1H-benzo[d]imidazol-2-yl)butanoic acid]
- DNA damage on mitochondrial DNA (8.9 kb PCR band) [1]: effectively damaged
- extracellular concentration (media) (MM.1S cells [5]): low levels of it are found in the media outside the cells
- intracellular concentration (MM.1S cells [5]): rapidly formed inside the cells
- DNA damage on nuclear DNA (HPRT 10.4 kb PCR band) [3]: effectively damaged

Structure (SMILES): Cn1c(CCCC(=O)O)nc2cc(N(CCCl)CCCl)ccc21 [Bendamustine, reference compound]
- DNA damage on mitochondrial DNA (8.9 kb PCR band) [1]: no or very minor effect on DNA damage
- cells with DNA breaks (MM.1S cells [6]; 0.6 μM for 24 h): not the case
- dose response effect on DNA damage (TUNEL positive cells) (MM.1S cells [6]; 0.006, 0.06, 0.6 or 6 μM for 24 h): no obvious effect
- extracellular concentration (media) (MM.1S cells [5]): quite high and decreased over time
- intracellular concentration (MM.1S cells [5]): Low intracellular concentrations could be detected of bendamustine and the level decreases over time
- DNA damage on nuclear DNA (HPRT 10.4 kb PCR band) [3]: no or very minor effect on DNA damage

Structure (SMILES): CCOC(=O)[C@@H](N)CCc1nc2cc(N(CCCl)CCCl)ccc2n1C.Cl.Cl [Example compound 38, Ethyl (2S)-2-amino-4-[5-[bis(2-chloroethyl)amino]-1-methyl-benzimidazol-2-yl]butanoate]
- DNA damage on mitochondrial DNA (8.9 kb PCR band) [1]: effectively damaged
- DNA damage on nuclear DNA (HPRT 10.4 kb PCR band) [3]: effectively damaged

Structure (SMILES): CC(C)C[C@H](NC(=O)[C@@H](N)CCc1nc2cc(N(CCCl)CCCl)ccc2n1C)C(=O)O [Example compound 20, (2S)-2-[[(2S)-2-amino-4-[5-[bis(2-chloroethyl)amino]-1-methyl-benzimidazol-2-yl]butanoyl]amino]-4-methyl-pentanoic acid]
- DNA damage on mitochondrial DNA (8.9 kb PCR band) [1]: DNA damaging effect but to a lesser degree compared to Example compounds 1, 2 and 18, but greater than Bendamustine or Melphalan
- DNA damage on nuclear DNA (HPRT 10.4 kb PCR band) [3]: DNA damaging effect but to a lesser degree compared to Example compounds 1, 2 and 18, but greater than Bendamustine or Melphalan
